For data set [1], the system named is B16F10 cutaneous cancer cells. Kind of data set: Viability of mice implanted intraperitoneally with B16F10 cells, co-administration with chemotherapeutics, 60 days. The data set is classed as in vivo, mouse. The following applies: for Proportion (%): untreated = 100.
Text: (§1) A homogeneous plantation test system of B 16F 10 cutaneous cancer cell was utilized for the measurement of the anticancer activity upon co-administration of the polysaccharide substance and adriamycin. The cutaneous cancer cells were implanted in the peritoneal cavity of mice. Adriamycin was peritoneally administered to the mice for 12 days after tumor implantation while the polysaccharide substance was peritoneally administered from a week before the implantation to 12 days after the implantation. For 60 days, the viability of the mice was recorded everyday. Adriamycin was used at such low amounts as not to damage the mice.
The cutaneous cancer cells were implanted in the peritoneal cavity of mice. […] For 60 days, the viability of the mice was recorded everyday. Mitomycin C was used at such low amounts as not to damage the mice.
The cutaneous cancer cells were implanted in the peritoneal cavity of mice. […] For 60 days, the viability of the mice was recorded everyday. Cisplastin was used at such low amounts as not to damage the mice.
as §1, with “B16F10” for “B 16F 10”, “5-fluoro uracil, as in the above experiments.” for “adriamycin.”, “5-fluoro uracil” for “Adriamycin”

Data set [2] concerns B16F10 cutaneous cancer cells. Kind of data set: Lung metastasis after tail-vein implantation of B16F10 cells, spots counted on the 14th day. The data set is classed as in vivo, C57BL/6 mice. An excerpt: In order to test the polysaccharide substance for the prevention of cancer metastasis, B16F10 cutaneous cancer cells were implanted in the tail veins of C57BL/6 mice. On the 14th day after implantation, the lungs were isolated from the mice to investigate whether or to what extent cancer metastasis occurred. Adriamycin was peritoneally administered to the mice for 12 days after tumor implantation while the polysaccharide substance was peritoneally administered from a week before the implantation to 12 days after the implantation. […]

Data set [3] concerns NCl-H23 human lung cancer cells. Kind of data set: Direct cytotoxicity, sulforhodamin B method.
Data set [4] concerns B16F10 mouse cutaneous cancer cells. The experiment in a line: Direct cytotoxicity, sulforhodamin B method.
Data set [5] deals with NCl-H23 lung cancer cells. The experiment in a line: Human lung cancer cells implanted subcutaneously in nude mice, tumor size and weight. Type of data set: in vivo. The protocol: The activity of the polysaccharide substance against human cancer was assayed using NCl-H23, a lung cancer cell line. Nude mice were subcutaneously implanted with NCl-H23 lung cancer cells. The polysaccharide substance and adriamycin were peritoneally administered to the nude mice for 12 days after cancer cell implantation. […] Because the nude mice were devoid of T-cells, their immunological competency was generally attributed to the activity of natural killer cells or macrophage cells. Therefore, the immunological enhancement obtained when administering the polysaccharide substance was meditated through these two type cells.

Setting [6] is: 0.3 µg/mL, 2nd day after treatment.

Molecules are shown by their SMILES.

On to `N.N.[Cl][Pt][Cl]` [C.P, Cisplatin], for which, in data set [1] (cisplatin 0.5 mg/kg alone), the “Avg. Viability” value was 33.0 days, the “Nos. of viable mice on the 60th day” value is 0/10 and the “Proportion (%)” value is 182.3%. Further, the “Avg. Viability” value in data set [1] (cisplatin 0.5 mg/kg alone, listed as Cisplatin) stood at 33 days. Besides, in data set [1] (cisplatin 1.5 mg/kg alone), the “Avg. Viability” value stood at 40.5 days, the “Nos. of viable mice on the 60th day” value is on record as 2/10 and the “Proportion (%)” value is recorded as 223.8%.
Take `CO[C@@]12[C@H](COC(N)=O)C3=C(C(=O)C(C)=C(N)C3=O)N1C[C@@H]1N[C@@H]12` [M.C, Mitomycin C]: the entries for the “Nos. of viable mice on the 60th day” value in data set [1] (mitomycin C 0.2 mg/kg alone) and in data set [1] (mitomycin C 0.6 mg/kg alone) were 0/10 and 1/10, respectively. In data set [1] (mitomycin C 0.6 mg/kg alone), the “Avg. Viability” value is recorded as 38.0 days.
As to `COc1cccc2c1C(=O)c1c(O)c3c(c(O)c1C2=O)C[C@@](O)(C(=O)CO)C[C@@H]3O[C@H]1C[C@H](N)[C@H](O)[C@H](C)O1` [Adriamycin], the “Nos. of Spots” value in data set [2] (adriamycin 1mg/kg alone) was 197; in data set [2] (adriamycin 3mg/kg alone), 172. In addition, the “cell quantity (untreated = 100 %)” value is reported as 100% in data set [3] (setting [6]); 71% in data set [3] (1 µg/mL, 2nd day); 39% in data set [3] (3 µg/mL, 2nd day); 7% in data set [3] (10 µg/mL, 2nd day); -1% in data set [3] (30 µg/mL, 2nd day); 56% in data set [4] (setting [6]). The “cell quantity (untreated = 100 %)” value in data set [4] (1 µg/mL, 2nd day) was 29%; in data set [4] (3 µg/mL, 2nd day), 9%; in data set [4] (10 µg/mL, 2nd day), -10%; in data set [4] (30 µg/mL, 2nd day) it was -10%. Also, the “cytotoxicity to cancer cells” value in data set [3] (overall statement) and in data set [4] (overall statement) was “potent cytotoxicity” throughout. Also, the figures for the “Avg. Viability” value in data set [1] (adriamycin 0.1 mg/kg alone) and in data set [1] (adriamycin 0.3 mg/kg alone) were 35.4 days and 40.1 days, respectively. The results for the “Nos. of viable mice on the 60th day” value in data set [1] (adriamycin 0.1 mg/kg alone) and in data set [1] (adriamycin 0.3 mg/kg alone) were 0/10 and 2/10, respectively. Also, the “Proportion (%)” value in data set [1] (adriamycin 0.1 mg/kg alone) is 195.6%; in data set [1] (adriamycin 0.3 mg/kg alone), 240.9%. For the same compound, the Cell size in data set [5] (14th day, 1mg/kg peritoneally for 12 days) worked out at 12 mm^3; in data set [5] (17th day, 1mg/kg), 27 mm^3; in data set [5] (18th day, 1mg/kg), 34 mm^3; in data set [5] (19th day, 1mg/kg) it was 33 mm^3. Moreover, the “Final Cancer Weight” value in data set [5] (19th day, 1mg/kg) worked out at 95.
`O=c1[nH]cc(F)c(=O)[nH]1` [5-FU, 5-fluoro uracil]: the “Avg. Viability” value in data set [1] (5-fluorouracil 1 mg/kg alone) came to 33.0 days; in data set [1] (5-fluorouracil 1 mg/kg alone, listed as 5-Fluorouracil), 34.2 days; in data set [1] (5-fluorouracil 3 mg/kg alone) it was 40.5 days; in data set [1] (5-fluorouracil 3 mg/kg alone, listed as 5-fluorouracil) it was 40.2 days. In addition, the “Nos. of viable mice on the 60th day” value in data set [1] (5-fluorouracil 1 mg/kg alone) is 0/10; in data set [1] (5-fluorouracil 3 mg/kg alone), 2/10. Moreover, the figures for the “Proportion (%)” value in data set [1] (5-fluorouracil 1 mg/kg alone) and in data set [1] (5-fluorouracil 3 mg/kg alone) were 187.8% and 222%, respectively.

These data come from patent publication EP1096022B1, “Immuno-stimulating polysaccharide substance from Phellinus spp. strain and use thereof” (KOREA INSTITUTE OF SCIENCE AND TECHNOLOGY, priority 1999, dated 2001).
